Target: T1, CDK12 complexed with Cyclin K (Homo sapiens, UniProt Q9NYV4)
T1 construct: GST (N)
Assay: Alternative CDK Enzymatic Assays (HTRF, pre-incubation with compounds and 1 mM ATP), Example A2
Type: biochemical
Conditions: enzyme pre-incubated with compounds and 1 mM ATP for 60 minutes; reaction 120 minutes at 25° C.
From the text: Example A2. Alternative CDK Enzymatic Assays
The following activity of the CDK enzymes in complex with their respective cyclins we assayed: CDK1 complexed with Cyclin B1; CDK2 complexed with Cyclin E1; CDK4 complexed with Cyclin D1; CDK6 complexed with Cyclin D1; CDK6 complexed with Cyclin D3; CDK9 complexed with Cyclin T1; CDK7 complexed with Cyclin H/MAT1; CDK2 complexed with Cyclin A2; CDK5 complexed with p35; CDK12 complexed with Cyclin K; CDK13 complexed with Cyclin K. These in vitro enzyme activity are assayed using homogeneous time-resolved energy transfer (HTRF), which measures phosphorylation of a peptide substrate. The LANCER Ultra kinase assay (PerkinElmer) uses a ULight™-labeled EIF4E-binding protein 1 (THR37/46) peptide (DYSTTPGGTLFSTTPGTRI (SEQ ID NO: 1)) substrate and a Europium-labeled anti-phospho-4E-BP1 antibody (CDK2, CDK1, CDK4, CDK6, CDK9, CDK12, CDK13) or ULight™-labeled Myelin Basic Protein peptide (VTPRTPPP (SEQ ID NO: 2)) substrate and a Europium-labeled anti-phospho-MBP antibody (CDK7). Each CDK enzyme activity assays utilized human CDK co-expressed as N-terminal GST-tagged protein with its full length cyclin partner using a baculovirus expression system.
Enzyme was pre-incubated with compounds and 1 mM ATP for 60 minutes (CDK 1, 2, 4, 6, 9, 7, 12, 13) prior to the addition of ATP and Ulight-peptide (1 mM and 50 nM final, respectively), in assay buffer containing 50 mM HEPES pH 7.5, 1 mM EGTA, 10 mM MgCl2, 2 mM DTT, 0.05 mg/mL BSA, and 0.01% Tween 20. The reaction was then incubated for 120 minutes at 25° C. incubator. The reactions were stopped by the addition of EDTA and Europium labeled antibody, for a final concentration of 15 mM and 0.5-1.5 nM, respectively. HTRF signals were read after 15-120 minutes. A ratio of fluorescence transferred to the labeled substrate (665 nm) relative to fluorescence of the Europium donor (620 nm) represents the extent of phosphorylation. Ratios for treated wells were normalized to DMSO only (100% activity) and no enzyme (0% activity) controls. Normalized data was analyzed using a three or four parameter dose response curve to determine IC50 for each compound and are shown in Table B. Control reference inhibitors were included on each plate.

T1 sequence (Q9NYV4 whole entry): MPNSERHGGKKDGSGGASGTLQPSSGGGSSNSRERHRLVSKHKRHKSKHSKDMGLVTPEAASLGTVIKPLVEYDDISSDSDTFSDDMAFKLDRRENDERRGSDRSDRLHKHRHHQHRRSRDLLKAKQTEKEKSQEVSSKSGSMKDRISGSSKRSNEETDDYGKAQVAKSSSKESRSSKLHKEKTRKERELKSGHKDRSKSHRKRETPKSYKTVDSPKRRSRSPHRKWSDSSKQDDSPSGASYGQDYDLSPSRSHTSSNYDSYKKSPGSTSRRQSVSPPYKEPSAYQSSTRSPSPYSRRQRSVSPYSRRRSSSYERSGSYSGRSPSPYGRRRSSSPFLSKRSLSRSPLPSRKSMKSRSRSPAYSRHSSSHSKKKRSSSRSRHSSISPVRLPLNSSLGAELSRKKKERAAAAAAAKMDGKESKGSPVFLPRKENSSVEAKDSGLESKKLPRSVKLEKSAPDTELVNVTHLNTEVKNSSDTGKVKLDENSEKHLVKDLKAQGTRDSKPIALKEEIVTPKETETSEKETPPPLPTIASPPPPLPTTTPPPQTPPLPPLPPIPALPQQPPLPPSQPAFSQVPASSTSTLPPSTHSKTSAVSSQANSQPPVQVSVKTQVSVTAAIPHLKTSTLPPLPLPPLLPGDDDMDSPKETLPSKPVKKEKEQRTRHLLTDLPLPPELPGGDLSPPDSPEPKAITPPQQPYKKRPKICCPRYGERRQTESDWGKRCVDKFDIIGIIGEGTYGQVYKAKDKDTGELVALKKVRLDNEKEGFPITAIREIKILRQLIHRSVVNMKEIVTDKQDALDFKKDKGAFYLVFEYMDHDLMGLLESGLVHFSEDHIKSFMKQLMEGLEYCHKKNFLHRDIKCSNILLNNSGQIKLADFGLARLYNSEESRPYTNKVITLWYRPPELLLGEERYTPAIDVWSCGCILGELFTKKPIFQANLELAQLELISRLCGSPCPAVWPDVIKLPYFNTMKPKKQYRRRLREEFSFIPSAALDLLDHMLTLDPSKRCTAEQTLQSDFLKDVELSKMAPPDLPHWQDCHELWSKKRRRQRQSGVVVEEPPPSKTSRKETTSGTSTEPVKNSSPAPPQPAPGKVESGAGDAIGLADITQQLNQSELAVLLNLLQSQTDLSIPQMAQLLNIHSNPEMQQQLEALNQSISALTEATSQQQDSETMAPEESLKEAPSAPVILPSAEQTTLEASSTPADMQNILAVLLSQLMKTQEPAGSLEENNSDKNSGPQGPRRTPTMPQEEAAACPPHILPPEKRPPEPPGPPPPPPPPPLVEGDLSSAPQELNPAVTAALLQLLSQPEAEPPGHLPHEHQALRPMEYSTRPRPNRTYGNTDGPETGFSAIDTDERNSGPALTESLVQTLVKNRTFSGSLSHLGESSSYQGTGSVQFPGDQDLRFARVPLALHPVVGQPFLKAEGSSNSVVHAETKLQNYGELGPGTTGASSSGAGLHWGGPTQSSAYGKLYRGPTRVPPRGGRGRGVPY
T1 sequence (O75909 whole entry partner): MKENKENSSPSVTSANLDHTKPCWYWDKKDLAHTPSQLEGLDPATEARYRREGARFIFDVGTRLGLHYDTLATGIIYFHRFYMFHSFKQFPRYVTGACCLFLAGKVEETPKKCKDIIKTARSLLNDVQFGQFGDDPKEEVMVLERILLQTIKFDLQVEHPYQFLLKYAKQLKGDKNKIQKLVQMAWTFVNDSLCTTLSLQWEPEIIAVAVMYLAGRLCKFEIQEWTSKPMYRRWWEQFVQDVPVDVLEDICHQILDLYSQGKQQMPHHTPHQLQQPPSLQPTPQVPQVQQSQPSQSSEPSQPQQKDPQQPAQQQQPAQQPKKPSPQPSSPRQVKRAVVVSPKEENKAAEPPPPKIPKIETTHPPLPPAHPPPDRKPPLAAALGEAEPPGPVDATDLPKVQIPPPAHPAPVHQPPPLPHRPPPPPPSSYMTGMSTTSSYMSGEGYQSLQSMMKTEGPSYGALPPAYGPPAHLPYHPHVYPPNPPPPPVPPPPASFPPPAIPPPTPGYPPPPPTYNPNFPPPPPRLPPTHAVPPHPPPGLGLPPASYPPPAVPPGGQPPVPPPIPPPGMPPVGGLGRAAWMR

SMILES | IC50
C=CC(=O)N1C[C@@H]2C[C@H]1CN2c1nccn2c(N3C[C@H](F)C[C@@H](Nc4ncc(C(F)(F)F)cn4)C3)ncc12 [Example 107, 1-((1S,4S)-5-(3-((3R,5R)-3-Fluoro-5-((5-(trifluoromethyl)pyrimidin-2-yl)amino)piperidin-1-yl)imidazo[1,5-a]pyrazin-8-yl)-2,5-diazabicyclo[2.2.1]heptan-2-yl)prop-2-en-1-one] | 50 to 500 nM
C=CC(=O)N1CCCCC1c1nccn2c(N3CCC[C@@H](Nc4ncc(C(F)(F)F)cn4)C3)ncc12 (stereo partly drawn) [Example 108, 1-(2-(3-((R)-3-((5-(Trifluoromethyl)pyrimidin-2-yl)amino)piperidin-1-yl)imidazo[1,5-a]pyrazin-8-yl)piperidin-1-yl)prop-2-en-1-one] | 50 to 500 nM
C=CC(=O)N1CCC(c2nccn3c(N4CCC[C@@H](Nc5ncc(C(F)(F)F)cn5)C4)ncc23)CC1 [Example 110, (R)-1-(4-(3-(3-((5-(Trifluoromethyl)pyrimidin-2-yl)amino)piperidin-1-yl)imidazo[1,5-a]pyrazin-8-yl)piperidin-1-yl)prop-2-en-1-one] | 50 to 500 nM
C=CC(=O)Nc1cc2nc(N3C[C@H](Nc4ncc(C(F)(F)F)cn4)C[C@@H](OC)C3)n(C)c2cc1C [Example 111, N-(2-((3R,5R)-3-Methoxy-5-((5-(trifluoromethyl)pyrimidin-2-yl)amino)piperidin-1-yl)-1,6-dimethyl-1H-benzo[d]imidazol-5-yl)acrylamide] | 50 to 500 nM
Cc1cc2c(cc1NC(=O)/C=C/C(C)(C)O)nc(N1C[C@H](F)C[C@@H](Nc3ncc(C(F)(F)F)cn3)C1)n2C [Example 112, (E)-N-(2-((3R,5R)-3-Fluoro-5-((5-(trifluoromethyl)pyrimidin-2-yl)amino)piperidin-1-yl)-1,6-dimethyl-1H-benzo[d]imidazol-5-yl)-4-hydroxy-4-methylpent-2-enamide] | > 500 nM
Cc1cc2c(cc1NC(=O)C#CC(C)(C)O)nc(N1C[C@H](F)C[C@@H](Nc3ncc(C(F)(F)F)cn3)C1)n2C [Example 113, N-(2-((3R,5R)-3-Fluoro-5-((5-(trifluoromethyl)pyrimidin-2-yl)amino)piperidin-1-yl)-1,6-dimethyl-1H-benzo[d]imidazol-5-yl)-4-hydroxy-4-methylpent-2-ynamide] | < 50 nM
COCC#CC(=O)Nc1cc2nc(N3C[C@H](F)C[C@@H](Nc4ncc(C(F)(F)F)cn4)C3)n(C)c2cc1C [Example 114, N-(2-((3R,5R)-3-Fluoro-5-((5-(trifluoromethyl)pyrimidin-2-yl)amino)piperidin-1-yl)-1,6-dimethyl-1H-benzo[d]imidazol-5-yl)-4-methoxybut-2-ynamide] | < 50 nM
Cc1cc2c(cc1NC(=O)C#CCO)nc(N1C[C@H](F)C[C@@H](Nc3ncc(C(F)(F)F)cn3)C1)n2C [Example 115, N-(2-((3R,5R)-3-Fluoro-5-((5-(trifluoromethyl)pyrimidin-2-yl)amino)piperidin-1-yl)-1,6-dimethyl-1H-benzo[d]imidazol-5-yl)-4-hydroxybut-2-ynamide] | < 50 nM
CC#CC(=O)Nc1cc2nc(N3C[C@H](F)C[C@@H](Nc4ncc(C(F)(F)F)cn4)C3)n(C)c2cc1C [Example 116, N-(2-((3R,5R)-3-Fluoro-5-((5-(trifluoromethyl)pyrimidin-2-yl)amino)piperidin-1-yl)-1,6-dimethyl-1H-benzo[d]imidazol-5-yl)but-2-ynamide] | 50 to 500 nM
C=C(F)C(=O)Nc1cc2nc(N3C[C@H](F)C[C@@H](Nc4ncc(C(F)(F)F)cn4)C3)n(C)c2cc1C [Example 117, 2-Fluoro-N-(2-((3R,5R)-3-fluoro-5-((5-(trifluoromethyl)pyrimidin-2-yl)amino)piperidin-1-yl)-1,6-dimethyl-1H-benzo[d]imidazol-5-yl)acrylamide] | 50 to 500 nM
Cc1cc2c(cc1NC(=O)/C=C/CN1CCCCC1)nc(N1C[C@H](F)C[C@@H](Nc3ncc(C(F)(F)F)cn3)C1)n2C [Example 118, (E)-N-(2-((3R,5R)-3-Fluoro-5-((5-(trifluoromethyl)pyrimidin-2-yl)amino)piperidin-1-yl)-1,6-dimethyl-1H-benzo[d]imidazol-5-yl)-4-(piperidin-1-yl)but-2-enamide] | > 500 nM
Cc1cc2c(cc1NC(=O)/C=C\CN(C)C)nc(N1C[C@H](F)C[C@@H](Nc3ncc(C(F)(F)F)cn3)C1)n2C [Example 119, (Z)-4-(Dimethylamino)-N-(2-((3R,5R)-3-fluoro-5-((5-(trifluoromethyl)pyrimidin-2-yl)amino)piperidin-1-yl)-1,6-dimethyl-1H-benzo[d]imidazol-5-yl)but-2-enamide] | > 500 nM
Cc1cc2c(cc1NC(=O)/C=C/CN(C)C)nc(N1C[C@H](F)C[C@@H](Nc3ncc(C(F)(F)F)cn3)C1)n2C [Example 120, (E)-4-(Dimethylamino)-N-(2-((3R,5R)-3-fluoro-5-((5-(trifluoromethyl)pyrimidin-2-yl)amino)piperidin-1-yl)-1,6-dimethyl-1H-benzo[d]imidazol-5-yl)but-2-enamide] | > 500 nM
COC/C=C/C(=O)Nc1cc2nc(N3C[C@H](F)C[C@@H](Nc4ncc(C(F)(F)F)cn4)C3)n(C)c2cc1C [Example 121, (E)-N-(2-((3R,5R)-3-Fluoro-5-((5-(trifluoromethyl)pyrimidin-2-yl)amino)piperidin-1-yl)-1,6-dimethyl-1H-benzo[d]imidazol-5-yl)-4-methoxybut-2-enamide] | 50 to 500 nM
C=CC(=O)Nc1ccc2c(c1)nc(N1C[C@H](O)C[C@@H](Nc3ncc(C#N)cn3)C1)n2C [Example 122, N-(2-((3R,5R)-3-((5-Cyanopyrimidin-2-yl)amino)-5-hydroxypiperidin-1-yl)-1-methyl-1H-benzo[d]imidazol-5-yl)acrylamide] | < 50 nM
C=CC(=O)Nc1ccc2c(c1)nc(N1CCC[C@@H](Nc3ncc(C(F)(F)F)cn3)C1)n2C [Example 123, (R)—N-(1-Methyl-2-(3-((5-(trifluoromethyl)pyrimidin-2-yl)amino)piperidin-1-yl)-1H-benzo[d]imidazol-5-yl)acrylamide] | < 50 nM
C=CC(=O)Nc1ccc2c(c1)nc(N1C[C@H](Nc3ncc(C(F)(F)F)cn3)CC(F)(F)C1)n2C [Example 124, (R)—N-(2-(3,3-Difluoro-5-((5-(trifluoromethyl)pyrimidin-2-yl)amino)piperidin-1-yl)-1-methyl-1H-benzo[d]imidazol-5-yl)acrylamide] | < 50 nM
C=CC(=O)Nc1ccc2c(c1)nc(N1CC[C@@H](F)[C@@H](Nc3ncc(C#N)cn3)C1)n2C [Example 125, N-(2-((3S,4R)-3-((5-Cyanopyrimidin-2-yl)amino)-4-fluoropiperidin-1-yl)-1-methyl-1H-benzo[d]imidazol-5-yl)acrylamide] | < 50 nM
C=CC(=O)Nc1ccc2c(c1)nc(N1CC[C@H](F)[C@@H](Nc3ncc(C#N)cn3)C1)n2C [Example 126, N-(2-((3S,4S)-3-((5-Cyanopyrimidin-2-yl)amino)-4-fluoropiperidin-1-yl)-1-methyl-1H-benzo[d]imidazol-5-yl)acrylamide] | < 50 nM
C=CC(=O)Nc1ccc2c(c1)nc(N1CCC(F)(F)[C@@H](Nc3ncc(C#N)cn3)C1)n2C [Example 127, (S)—N-(2-(3-((5-Cyanopyrimidin-2-yl)amino)-4,4-difluoropiperidin-1-yl)-1-methyl-1H-benzo[d]imidazol-5-yl)acrylamide] | < 50 nM
